What all share (assay type): cell-based
Assay [1] deals with N1E-115 cells. As to the kind of experiment: Cell guidance assay at Laminin/CSPG boundary (axonal guidance). The protocol:
Effect of PAK peptides on neurite morphology. Cells are exposed to control peptide, αP 1*, αP2, βP2, or γP2 and neurite morphology assessed. (B) Cells are plated on coverslips that been treated to create a Laminin/CSGP boundary. After 6 h cells are examined for their ability to project neurites that crossed the substrate boundary. Cells exposed to bioporter coated peptides, (a) αP2, (b) βP2, and (c) γP2. […] Results are means+/−SEM (n=161-263). (C) Cells are exposed to peptides and after 6 h are scored for their ability to cross boundary from Laminin to CSPG.
The coverslips are washed and sterilised and then coated in one of the following ways.
A second layer of laminin is applied as a drop mixed with 1 μg/ml TRITC label. Coverslips are left for 1 hour at RT and then rinsed twice with sterile water before allowing to dry before use. (iii) Attractive/repulsive boundary. Slides are coated with CSPG 5 μg/ml for 1 hour at 37° C. in a humid chamber then rinsed once in sterile H2O and allowed to air dry before the drop of laminin at 10 μg/ml is applied to the centre of the coverslip and left for 1 hour at RT before rinsing twice in sterile water and allowing to dry before use. This coating is also done in reverse with the laminin applied first and then the tenascin or the CSPG applied second.
The cells are then seeded onto the prepared coverslips at 2×10^5 cells in 1 ml in a 35 mm petri dish, in DMEM, 10% FCS, and 1% AB/AM. Cells are allowed to attach overnight. The media is then removed and the coverslips rinsed in serum free media and incubated overnight (18 h) in serum free media. After the starvation the cells are fixed and stained to show the morphology of the cells at the boundary. Only neurites expressing neurofilamant are scored.
After 5 minutes, the cells are washed once with serum free DMEM media and then 1 ml of serum free DMEM is added to the tube containing the peptide and BioPorter mix it is vortexed gently before being added to the cells. The cells are incubated for 4 hours at 37° C. After the 4 hour incubation the cells are then incubated for a further 2 hours in 5% FCS DMEM or for cells undergoing a substrate guidance assay the 2 hour incubation is in serum free DMEM. The cells are fixed and stained.
Neurofilament positive neurites are scored for how they respond to Laminin/CSPG boundary. […] However, neurites do have distinct morphologies (FIG. 9A). Thus α, β and γ PAK are not essential for neurite outgrowth.

Assay [2] relates to N1E-115 cells. As to the kind of experiment: Microinjection of peptides into partially serum starved N1E-115 cells, phalloidin staining and confocal microscopy of cell morphology. To be noted: FIG. 8A. The protocol: (§1) Cells are starved for 2-3 h and then either injected with peptides (10 μg/ml) or exposed to peptides with bioporter reagent. Cells are incubated for a further 2 h before being stained with phalloiden and examined by confocal microscopy (as described in the materials and methods section). (A) The upper cells is injected with αP1 (a), or all cells injected with αP1*(b), or exposed to αP2 with bioporter reagent (c). […] Results are expressed as means+/−SEM of 3 experiments (n=333-426 cells). […] (D) Cells are exposed to bioporter reagent with αP2 and after 6 h double stained with αPAK and vinculin antibodies; (a) Vinculin/αPAK, (b) Vinculin and (c) αPAK. Bar=10 μM. Control bars are with IgG with bioporter/microinjection.
(§2) Cells are starved for 2-3 h and then injected with peptides. Cells are then incubated for 2 h before being stained with phalloiden and examined by confocal microscopy (as described in the materials and methods section). (A) Cells are injected with IgG (a), with αP2 (b), with βP2 (c) and γP2 (d). Bar=10 μM. (B) Cells are exposed to bioporter with peptides and presence of neurites, pronounced filopodia and pronounced lamellipodia/ruffles scored (definitions as in FIG. 7). (C) Cells are either exposed to bioporter reagent coated peptides (αP2 and βP2) and then IGF or serum starvation used to activate cells. For γP2 cells are injected with peptide and stimulated with serum. Filopodia and lamellipodia are scored by using time-lapse phase contrast microscopy. +/−SEM of 3 experiments (n=900). Control peptide is taken from the kinase domain and common to the three PAK isoforms.
Cells are plated out at 1.0×10^5 cells in 1 ml in a 35 mm dish containing 2 laminin coated coverslips. The coverslips are first marked with a grid using a fine permanent marker and then coated with laminin and incubated overnight in DMEM, 10% FCS, 1% AB/AM. The media is replaced with serum free media (DMEM, 1% AB/AM) and the cells starved for 1 hour so that they flattened and are easier to inject. The peptides are injected at 10 μg/ml in PBS, Rat IgG at 1 mg/ml is added to act as a marker for injected cells.
The cells are injected using an Eppendorf microinjection apparatus on an Axioplan inverted microscope equipped with a heated stage maintained at 37° C. and a 5% CO2 chamber. Humidity is maintained by a dish of sterile water inside the CO2 chamber. Cells in a grid square are injected and positive injection checked visually at the time of injection or after fixation and staining for the injected marker. After injection the cells are returned to the incubator for a further 2 hours. Giving a total time without serum of 4 hours.
The only difference between these two peptides being that the latter peptide is phosphorylated on serine and this modification prevents it from binding Nck (Zhao et al., 1998). To investigate the effects of peptides we first serum starve the cells for 2-4 h to activate Cdc42Hs and Rac.

Assay [3] deals with N1E-115 cells. As to the kind of experiment: Axonal guidance towards IGF (preliminary experiments). To be noted: unpublished data. The source says:
In preliminary experiments we have also examined the effect of the PAK peptides on axonal guidance towards IGF in N1E-115 cells.

The subject of assay [4] is N1E-115 cells. As to the kind of experiment: Double staining of peptide treated cells with vinculin and αPAK antibodies (focal complexes). To be noted: FIG. 7D. The procedure: as §1
For in situ analysis primary/secondary antibodies are used at 1:100 dilution. PAK antibodies, all from Santa-Cruz, are as follows; αPAK N-20 (raised to rat amino acids 2-21), αPAK C-19 (raised to rat amino acids 525-544), βPAK (raised to mouse amino acids 2-20), γPAK (raised to human amino acids 2-20) and γPAK (raised to human amino acids 2-20). Vinculin, paxillin, phosphotyrosine are from Sigma. Integrin antibodies β1-integrin and α6-integrin a gift from A. Sonneberg, NCI, Netherlands. Bac1 cells are seeded onto coverslips and then grown for 24 h before the media is replaced with either CSF free, serum free, or CSF/serum free. […]

For assay [5], the system named is N1E-115 cells. As to the kind of experiment: Peptide delivery with BioPorter reagent, scoring of neurites, filopodia and lamellipodia/ruffles. The protocol: as §1, §2
BioPorter regent is supplied as a dried powder and must be dissolved in a solvent before use. To each tube of BioPorter reagent 250 μl of methanol is added and the powder is re-suspended by vortexing for 10-20 seconds. 10 μl of the mix is transferred into new eppendorf tubes; the methanol is allowed to evaporate for 2 hours in a laminar flow hood. The dried reagent is stored at −20° C.
Cells are plated out at 1.5×10^5 cells in a 35 mm dish containing 2 laminin-coated coverslips and incubated overnight. […]

Take SNNGLDIQDKPPAPPMRNTS [αP2]: the “ability to detect the Laminin/CSPG boundary” value with N1E-115 cells [1] (FIG. 9C) is given as “not affected”. Besides, the neurite morphology result in the assay with N1E-115 cells [1] (serum starved cells, FIG. 9A) was “indistinguishable from control cells”. Also, the “effect on formation of lamellipodia, filopodia or neurites concluded from microinjection” value in the assay with N1E-115 cells [2] was “synergise with both Cdc42 and Rac to produce neurites”. In addition, the “effect on axonal guidance towards IGF” value in the assay on N1E-115 cells [3] is recorded as “do not affect guidance”. For the same sequence, the “αPAK containing focal complexes (FC's) after peptide treatment” value in the assay on N1E-115 cells [4] was “leads to loss of FC's”. Also, in the assay on N1E-115 cells [5] (FIG. 7B), the “neurite phenotype compared with αP1” value was “neurites that are thinner and longer”; the “percentage of cells possessing neurites compared with αP1” value is on record as “higher”. For the same sequence, the “optimal peptide concentration for the phenotypic changes” value with N1E-115 cells [5] (dosage dependent effect, FIG. 7C) was determined as 10 µg/mL.

These data come from patent publication US20060088897A1, “Modulators” (priority 2003, published 2006).
